# Where “and” joins values, the source holds several entries; their conditions need not be identical. Equal values may be shown once.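 Protocol summary: plate cells (96-well), add compound at 5 concentrations, incubate 48 h, interpolate endpoints linearly. Here, GI50 denotes the concentration required for 50% inhibition of growth. TGI marks complete inhibition of growth.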
# Legend:
# Experiment in all cases: growth of human tumour cells (NCI), 48 h
# [1] = tested on: SF-539 CNS
# [2] = tested on: UACC-62 melanoma
# [3] = tested on: KM12 colon
# [4] = tested on: NCI/ADR-RES ovarian
# [5] = tested on: OVCAR-8 ovarian
# [6] = tested on: LOX IMVI melanoma
# [7] = tested on: OVCAR-3 ovarian
# [8] = tested on: SW-620 colon
# [9] = tested on: A549 NSCLC
# [10] = tested on: NCI-H460 lung
SMILES,GI50 [1],TGI [1],GI50 [2],TGI [2],GI50 [3],TGI [3],GI50 [4],TGI [4],GI50 [5],TGI [5],GI50 [6],TGI [6],GI50 [7],TGI [7],GI50 [8],TGI [8],GI50 [9],TGI [9],GI50 [10],TGI [10]
OC(c1cc(C(F)(F)F)nc2c(C(F)(F)F)cccc12)C1CCCCN1 (configuration not stated),2.72 µM,6.34 µM,1.89 µM,4.47 µM,1870 nM,3.59 µM,2.31 µM,5.95 µM,1.97 µM,4.24 µM,1.65 µM,3.15 µM,2.19 µM,4.37 µM,1.85 µM,3.46 µM,2.24 µM,6.33 µM,2.07 µM,4.14 µM
CC(C)(C)[Si](C)(C)OC1[C@@H](O[Si](C)(C)C(C)(C)C)[C@@H](CNC(=O)NC(=O)C(F)(F)F)O[C@H]1n1cnc2c(NC(=O)Nc3ccccc3)ncnc21 (some centres not stated),6.74 µM,13.2 µM,7.45 µM,15.9 µM,4020 nM,11.4 µM,7.56 µM,14.7 µM,7.76 µM,16.7 µM,6.12 µM,12.3 µM,7.63 µM,14.5 µM,7.53 µM,15.7 µM,4.5 µM,12.4 µM,6.39 µM,15.7 µM
CC(=O)Nc1cc2ccc(=O)oc2cc1Cl,,> 100 µM,,> 100 µM,,> 100 µM,,> 100 µM,,> 100 µM,,> 100 µM,,> 100 µM,,> 100 µM,,> 100 µM,,> 100 µM
CCC(C)SC1SCC2C(=O)N(C)C3(CC3C)C(=O)OCC(NC(=O)c3nc4ccccc4cc3O)C(=O)NC(C)C(=O)N(C)C1C(=O)N(C)C1(CC1C)C(=O)OCC(NC(=O)c1nc3ccccc3cc1O)C(=O)NC(C)C(=O)N2C (configuration not stated),,0.000317 µM,,5.01e-05 µM,0.0524 nM,0.000397 µM,,6.15 µM,,0.0133 µM,,0.000122 µM,0.000162 µM,0.00768 µM,,0.00439 µM and < 0.034 µM,,1.91 µM,,0.0262 µM
CN1CCN(c2ccc(Nc3ncc(Cl)c(NC[C@@H]4CCCO4)n3)cc2)CC1,1.52 µM,4.22 µM,1.95 µM,10.5 µM,362 nM,11.7 µM,3.15 µM,> 100 µM,4.02 µM,> 100 µM,0.826 µM,6.83 µM,2.53 µM,> 100 µM,0.538 µM,> 100 µM,1.05 µM,5.5 µM,0.573 µM,6.55 µM
O=C1c2c(F)c(F)c(F)c(F)c2C(=O)N1c1ccc(F)cc1F,2.78 µM,7.27 µM,4.11 µM,14.3 µM,22500 nM,65.5 µM,7.55 µM,30.5 µM,12.8 µM,50.8 µM,1.5 µM,5.11 µM,9.17 µM,27.5 µM,2.11 µM,7.22 µM,16.3 µM,34.7 µM,9.35 µM,> 51 µM
CC(C)[C@@H]1NC(=O)[C@]2(C)CSC(=N2)c2ccnc(c2)CNC(=O)C[C@@H](/C=C/CCS)OC1=O,0.0832 µM,> 65.5 µM,0.0746 µM,0.552 µM,85.7 nM,> 86.1 µM,2.46 µM,> 61.6 µM,0.128 µM,> 100 µM,0.208 µM,0.588 µM,0.833 µM,6.87 µM,0.448 µM,7.65 µM,0.0635 µM,1.33 µM,< 0.0253 µM,> 100 µM
CN(C)CC(O)c1ccc(/C=C/c2ccc(Cl)cc2)cc1 (configuration not stated),1.82 µM,3.84 µM,1.62 µM,3.02 µM,1660 nM,3.03 µM,1.67 µM,3.19 µM,1.75 µM,3.32 µM,1.63 µM,2.98 µM,1.57 µM,2.91 µM,1.6 µM,2.95 µM,1.86 µM,3.38 µM,1.45 µM,2.75 µM
COC(=O)[C@]12CC[C@@H](C)[C@H](C)[C@@H]1C1=CC[C@@H]3[C@@]4(C)C[C@@H](O)[C@H](O)[C@@](C)(CO)[C@@H]4[C@H](O)C[C@@]3(C)[C@]1(C)CC2,14 µM,29 µM,10.1 µM,23.6 µM,12300 nM,26.4 µM,15.5 µM,35.1 µM,17.7 µM,41.1 µM,14 µM,28 µM,12.8 µM,26 µM,18.8 µM,39.4 µM,15.8 µM,45.2 µM,14.8 µM,33.6 µM
C/C=C/[C@@H]1O[C@@H]2COC(=O)C2=C[C@@H]1O,2.78 µM,8.14 µM,17.5 µM,34.6 µM,20500 nM,53.2 µM,25.9 µM,60.5 µM,23.3 µM,51.8 µM,17.5 µM,36.1 µM,4.19 µM,22.2 µM,2.13 µM,5.07 µM,20.6 µM,40.4 µM,> 57.7 µM,> 100 µM
O=C1CSC(=S)N1/N=C/c1ccc(Cl)c([N+](=O)[O-])c1,,> 100 µM,,64.8 µM,,> 100 µM,,52.5 µM,,92.2 µM,,47.7 µM,,42.5 µM,,> 100 µM,,> 100 µM,,> 100 µM
O=C1OCC2=C1C(c1cccc(Br)c1)c1cc3c(cc1N2CCO)OCCO3 (configuration not stated),0.051 µM,0.46 µM,0.022 µM,> 23.7 µM,44.2 nM,2.31 µM,0.0635 µM,0.273 µM,0.12 µM,1.54 µM,0.107 µM,9.28 µM,0.0345 µM,0.0967 µM,0.0527 µM,> 27.9 µM,0.131 µM,5.97 µM,0.0588 µM,2.21 µM
c1ccc(-c2n(Cc3ccc4ccccc4n3)cc[n+]2Cc2ccc3ccccc3c2)cc1,1.45 µM,4.64 µM,0.631 µM,2.06 µM,823 nM,2.42 µM,19.5 µM,66.8 µM,1.63 µM,4.4 µM,0.955 µM,2.31 µM,0.766 µM,2.63 µM,1.91 µM,7.4 µM,2.91 µM,12.1 µM,1.79 µM,5.8 µM

# From PubChem BioAssay (NCI)
